Where two headings read alike, the source gives them in different places.
Experiments:
[1] = Intravenous pharmacokinetic study of CBD:HP-β-CD solution in piglets (UHPLC-MS/MS plasma quantification); type: in vivo, Large White piglets; set-up: A (macro constant): unit not given beside the values; γ (macro constant) / α (macro constant) / B (macro constant) / β (macro constant) / C (macro constant): unit not given here; conditions: for AUC(0-t) / Cmax: piglet plasma, IV 0.3 mg/kg CBD, non-compartmental analysis, normalized to dose
Experimental: The in vivo study was performed within the PigForLife® (CER Group Facilities) GLP structure (Marloie, Belgium). The study protocols were approved by the Local Ethical Commission before starting the study and complied with the Belgian regulation as published in the «Royal Decree of 29 May 2013 on the protection of experimental animals, A.G.W. 30 November 2017».
Sterile and isotonic CBD:HP-β-CD 100 mM (1.2 mg CBD/mL) solutions were prepared. A HP-β-CD stock solution (200 mM) was prepared by dissolving 31.0 g of HP-β-CD up to 100 mL with milliQ water. CBD:HP-β-CD complexes were prepared by adding an excess of CBD (45 mg) powder to 5 mL of milliQ water and 5 mL of the HP-β-CD stock solution, added with 84 mg of NaCl. The suspensions were kept in a rotating water bath set at 37 °C for 12 h. The suspensions were finally filtered through a 0.2 µm PHENEX® PTFE filter in laminar flow insulator conditions. The osmolarity and the pH value of the solutions were determined using a Freezing Point Osmometer (Löser, Delta Labo, Avignon, France) and a pH meter (Seven Easy, Mettler Toledo, Zaventem, Belgium), respectively. The solutions were injected to three Large White piglets (male and female, between 8 and 10 kg) at a dose of 0.3 mg/kg, as detailed in Table 3.
The animals were born on site and used in good health. The animals were housed together in pens of about 40 m^2 and an enriched environment was provided. Natural temperature and light cycles were used in a straw litter. During storage, the animals were fed ad libitum with a balanced pellet diet and were not given any curative or prophylactic veterinary drugs or additives during the study period. Tap water was available ad libitum. The piglets were fasted overnight ([…]) before receiving the formulations. All piglets were clinically examined before the study and before sampling. Blood samples (2 mL in EDTA tubes) were taken at 5 min, 10 min, 20 min, 30 min 45 min, 60 min, 90 min, 2 h, 4 h and 8 h. Blood samples were stored at 4 °C and centrifuged at 2500× g for 10 min. Plasma samples were then frozen at −80 °C until their analysis.
Pharmacokinetic analyses were evaluated by using the software Phoenix WinNonlin 8.4 version (Certara, Princeton, NJ, USA). Cmax and AUClast were determined through a non-compartmental pharmacokinetic analysis using the linear trapezoidal linear interpolation calculation method. Obtained values were normalized do the dose administered. The volumes of distribution (V1 and Vss), clearance and macro (A, B, C, α, β, γ) and micro (k10, k12, k21, k13, k31) constants were determined assuming a 2- or 3-compartment model. The model offering the best compromise between fitting and the number of parameters was selected based on an F test approach.

[2] = set-up: method as in PMID 34400185; conditions: reported in the literature; cited from earlier work
[3] = set-up: method as in PMID 30534073; conditions: humans, cited from earlier work
[4] = set-up: method as in PMID 31173966; conditions: mice, CBD emulsion IV 10 mg/kg; cited from earlier work
[5] = set-up: method as in PMID 35895770; conditions: horses, IV CBD in DMSO 0.1 mg/kg; cited from earlier work
[6] = both sexes, Large White, pig, n = 3
[7] = IV-bolus three-compartment model, n = 2
[8] = IV-bolus three-compartment model, n = 3
[9] = IV-bolus two-compartment model, n = 2
[10] = IV-bolus two-compartment model, n = 3
[11] = piglets, IV, two-compartment model

C=C(C)C1CCC(C(=O)O)=CC1c1c(O)cc(CCCCC)cc1O (centres unmarked) [7-COOH-CBD, 7-COOH-cannabidiol]
AUC(0-t) [1, 6]: 3930 ± 572 ng·h/mL
Cmax [1, 6]: 610 ± 169 ng/mL
earliest time metabolite concentrations were observed ([1]; piglet plasma after IV CBD 0.3 mg/kg, first sampling point): 5 min
metabolite plasmatic concentration relative to that of CBD [2]: 40 fold

C=C(C)[C@@H]1CCC(C)=C[C@H]1c1c(O)cc(CCCCC)cc1O [CBD, Cannabidiol]
A (macro constant) [1, 7]: 638.52 ± 60.91
B (macro constant) [1, 7]: 330.39 ± 41.34
C (macro constant) [1, 7]: 17.71 ± 15.74
α (macro constant) [1, 7]: 12.28 ± 7.90
β (macro constant) [1, 7]: 0.80 ± 0.19
γ (macro constant) [1, 7]: 0.09 ± 0.12
A (macro constant) [1, 8]: 640.14 ± 43.16
C (macro constant) [1, 8]: 10.56 ± 6.33
β (macro constant) [1, 8]: 0.70 ± 0.21
γ (macro constant) [1, 8]: 316.02 ± 38.40
A (macro constant) [1, 9]: 500.89 ± 129.30
B (macro constant) [1, 9]: 133.91 ± 105.05
α (macro constant) [1, 9]: 2.75 ± 2.18
β (macro constant) [1, 9]: 0.33 ± 0.10
A (macro constant) [1, 10]: 542.53 ± 116.45
B (macro constant) [1, 10]: 168.95 ± 95.92
α (macro constant) [1, 10]: 3.71 ± 2.26
β (macro constant) [1, 10]: 0.34 ± 0.07
clearance ([1]; both sexes, Large White, pig, plasma, 0.3 mg/kg, piglets, IV, two-compartment model, read-out: Cl (clearance) (converted)): 25.2 mL/min
Vd ([1]; both sexes, Large White, pig, plasma, 0.3 mg/kg, piglets, IV, two-compartment model, read-out: Vss (volume at steady state)): 3.26 ± 0.287 L
AUC(0-t) [1, 6]: 639 ± 79.2 ng·h/mL
Cmax [1, 6]: 600 ± 75.8 ng/mL
half-life ([1]; both sexes, Large White, pig, piglets, IV 0.3 mg/kg CBD:HP-β-CD solution, experimental plasma profile, read-out: apparent distribution half-life (converted)): 0.25 h
elimination half-life ([1]; piglets, IV 0.3 mg/kg CBD:HP-β-CD solution, experimental plasma profile): two
Capacity (k12/k21) [1, 11]: 1.5
Depth (k10/k12) [1, 11]: 0.58
V1 (volume of the central compartment) [1, 11]: 1512.43 ± 538.41 mL
fc (ratio of quantity in the central compartment over total quantity, β/k1-0) [1, 11]: 0.33
k1-0 (micro constant) [1, 11]: 1.04 ± 0.20 h⁻¹
k1-2 (micro constant) [1, 11]: 1.80 ± 1.43 h⁻¹
k2-1 (micro constant) [1, 11]: 1.20 ± 0.74 h⁻¹
half-life of elimination (t1/2) ([3]; after chronic oral administration): several days
clearance ([3]; following an intravenous injection): 74.4 L/h
half-life of elimination (t1/2) ([3]; pulmonary or single oral administration): around one or two
clearance [4]: 56.7 mL/min/kg
half-life [4]: 3.9 h
half-life [5]: 3.15 h

Reference: publication PMC10820640, “An Intravenous Pharmacokinetic Study of Cannabidiol Solutions in Piglets through the Application of a Validated Ultra-High-Pressure Liquid Chromatography Coupled to Tandem Mass Spectrometry Method for the Simultaneous Quantification of CBD and Its Carboxylated Metabolite in Plasma” (Pharmaceutics, 2024)
